Legend:
Capan-2 cells = experiment: Capan-2 cell anti-proliferative activity test; format: cell-based; settings: Homo sapiens, Capan-2, 120 h; 5 days, CellTiter-Glo
Experimental: Capan-2 cells were provided by Wuhan Heyan Biomedical Technology Co., Ltd., and CellTiter-Glo was purchased from Promega.
Capan-2 cells were seeded in a white 96-well plate, with 80 μL of cell suspension per well, each containing 5,000 Capan-2 cells. The cell plate was placed in a carbon dioxide incubator for overnight culture.
The test compounds were 3-fold diluted with a multi-channel pipette to the 9th concentration, i.e., diluted from 200 μM to 30 nM, and duplicate experiment was set. 78 μL of culture medium was added to an intermediate plate, and then 2 μL of gradient diluted compound per well was transferred to the intermediate plate according to the corresponding position. After mixing well, the compound was transferred to the cell plate at 20 μL per well. The cell plate was placed in a carbon dioxide incubator and cultured for 5 days. Another cell plate was prepared, and the signal value was read on the day of drug administration to serve as the maximum value (Max value in the equation below) for data analysis. 25 μL of cell viability chemiluminescence detection reagent was added to each well of this cell plate, and it was incubated at room temperature for 10 minutes to stabilize the luminescent signal. A multimode microplate reader was used for reading.
After the cell plate was cultured for 5 days, 25 μL of Promega CellTiter-Glo reagent was added to each well of the cell plate, and it was incubated at room temperature for 10 minutes to stabilize the luminescent signal. A multimode microplate reader was used for reading.
The IC50 value could be obtained through curve fitting, and the results of the inhibitory activity of the compounds of the present disclosure on the proliferation of Capan-2 cells are shown in Table 11.

[1] = tested on: WNT pathway STF reporter gene; experiment: Super-Top-Flash (STF) reporter gene inhibitory activity test; format: cell-based; settings: HEK293 STF and L wnt3A cells 1:1, 24 hours, Bright-Glo
Experimental: HEK293 STF and L wnt3A cells were provided by Wuhan Heyan Biomedical Technology Co., Ltd., and Bright Glo was purchased from Promega.
• HEK293 STF and L wnt3A cells were seeded in a white 96-well plate at a ratio of 1:1, with 80 μL of cell suspension per well, each containing 20,000 HEK293 STF cells and 20,000 L wnt3A cells. The cell plate was placed in a carbon dioxide incubator for overnight culture.
The test compounds were 5-fold diluted with a multi-channel pipette to the 8th concentration, i.e., diluted from 400 μM to 5.12 nM, and duplicate experiment was set. 78 μL of culture medium was added to an intermediate plate, and then 2 μL of gradient diluted compound per well was transferred to the intermediate plate according to the corresponding position. After mixing well, the compound was transferred to the cell plate at 20 μL per well. The cell plate was placed in a carbon dioxide incubator and cultured for 24 hours.
100 μL of Promega Bright-Glo reagent was added to each well of the cell plate, and it was incubated at room temperature for 10 minutes to stabilize the luminescent signal. A multimode microplate reader was used for reading.
Using the raw data from the multimode microplate reader, the IC50 value could be obtained through curve fitting. Table 10 provides the data on the inhibitory activity of the compounds of the present disclosure on the Wnt signaling pathway.

[2] = Solvent pre-stability of crystal form A (suspension stirring, XRPD); format: physicochemical; settings: for Crystal form after suspension in solvent (XRPD): stirred overnight at 25° C.
Experimental: (To ensure maximum suspension of the sample, the amount of compound and solvent was adjusted during the experiment based on the observed phenomena, and even the container used for the experiment was changed if necessary.) After adding a magneton, the suspension sample was placed on a magnetic heating stirrer (25° C.) for testing. After stirring overnight at 25° C., the suspension sample was filtered, and the solid sample on the filter cake was placed in a vacuum drying oven (45° C.) to dry overnight. The crystal form of the solid was obtained by X-ray powder diffraction (XRPD) detection.

[3] = Hygroscopicity of crystal form A (DVS); format: physicochemical
Experimental: • SMS DVS intrinsic dynamic vapor sorption instrument
Note: ΔW % represents the increase in weight due to moisture absorption of the test sample at 25±1° C. and 80±2% RH.

[4] = Solid pre-stability test of crystal form A (high temperature, high humidity, light; XRPD); format: physicochemical
Experimental: The sample placed under high temperature (60° C.) and high humidity (relative humidity 92.5% RH) conditions was sealed with aluminum foil to seal the mouth of the vial, and small holes were made in the aluminum foil to ensure that the sample could fully contact the ambient air, and it was placed in the corresponding constant temperature and humidity box. The light sample (open, not covered with aluminum foil) and the light control sample (the entire sample vial was covered with aluminum foil) were placed in the light box. At each time point, two samples were weighed separately as official test samples. […] The sample vial was wrapped with aluminum foil and small holes were made, and it was also placed in the corresponding constant temperature and humidity box. The sample was taken for testing (XRPD) on days 5 and 10, and the test results were compared with the initial test results on day 0.

For `Cn1cc(-c2ccc(CNc3nccn4c(-c5cncc(F)c5)cnc34)cn2)ccc1=O` [Compound 4], the IC50 (Capan-2 cells) was 24.6 nM.
`Cn1cc(-c2ccc(CNc3ncnn4c(-c5cncc(F)c5)ccc34)cn2)ccc1=O` [Compound 1] gave an IC50 [1] of 8.41 nM and an IC50 (Capan-2 cells) of 6.09 nM.
For `Cn1cc(-c2cnc(CNc3nccn4c(-c5cc(F)cc(F)c5)cnc34)cn2)ccc1=O` [crystal form A of compound 2], the “Crystal form after suspension in solvent (XRPD)” value (“Crystal form after suspension” for short) ([2]; 2-Methyltetrahydrofuran) was “Crystal form A”, the “Crystal form after suspension” value ([2]; Acetone) was “Crystal form A” and the “Crystal form after suspension” value ([2]; Acetone:water (2:1)) was “Crystal form A”. The “Crystal form after suspension” value ([2]; Acetonitrile) was “Crystal form A”, the “Crystal form after suspension” value ([2]; Dioxane) was “Crystal form A” and the “Crystal form after suspension” value ([2]; Ethanol) was “Crystal form A”. For the same compound, the “Crystal form after suspension” value ([2]; Ethanol:water (1:1)) was “Crystal form A”, the “Crystal form after suspension” value ([2]; Ethyl acetate) was “Crystal form A” and the “Crystal form after suspension” value ([2]; Isopropanol) was “Crystal form A”. For the same compound, the “Crystal form after suspension” value ([2]; Methanol) was “Crystal form A”, the “Crystal form after suspension” value ([2]; Methyl tert-butyl ether) was “Crystal form A” and the “Crystal form after suspension” value ([2]; Tetrahydrofuran) was “Crystal form A”. The “Stability in different solvents” value ([2]; conclusion) was “good stability”, the “Crystal form after suspension” value ([2]; n-Heptane) was “Crystal form A” and the Hygroscopicity classification ([3]; 25° C. and 80% RH) was “no or almost no hygroscopicity”. The “Weight gain due to moisture absorption” value ([3]; 25° C., 80% RH, compared to initial humidity of 30% (cycle 1 adsorption)) was 0.07%, the “Weight decrease of the sample” value ([3]; 25° C., humidity continued to rise to 90%) was 0.15% and the “Weight gain due to moisture absorption” value ([3]; 25° C., humidity continued to rise to 95% (cycle 1 adsorption)) was 0.01%. For the same compound, the “Crystal form before and after the DVS test (XRPD)” value ([3]; 30-95-0-95% RH/25° C.) was “the crystal form did not change”, the “Crystal form (XRPD)” value ([4]; 0 days) was “Crystal form A” and the “Crystal form (XRPD)” value ([4]; High humidity (relative humidity 92.5%, open), 5 days) was “Crystal form A”. The “Crystal form (XRPD)” value ([4]; High humidity (relative humidity 92.5%, open), 10 days) was “Crystal form A”, the “Crystal form (XRPD)” value ([4]; High temperature (60° C., open), 5 days) was “Crystal form A” and the “Crystal form (XRPD)” value ([4]; High temperature (60° C., open), 10 days) was “Crystal form A”. For the same compound, the “Crystal form (XRPD)” value ([4]; Light (total illumination = 1.2 × 10^6 Lux · hr/near ultraviolet = 200 w · hr/m^2, open), 5 days) was “Crystal form A”, the “Crystal form (XRPD)” value ([4]; Light (total illumination = 1.2 × 10^6 Lux · hr/near ultraviolet = 200 w · hr/m^2, open), 10 days) was “Crystal form A” and the “Stability under high temperature, high humidity, and strong light” value ([4]; conclusion) was “good stability”.
Work on `Cn1cc(-c2ccc(CNc3nccc4c3ncn4-c3ccccc3)cn2)ccc1=O` [Compound 7] yielded an IC50 (Capan-2 cells) of 5.94 nM.
With `Cn1cc(-c2ccc(CNc3nccn4c(-c5cncc(F)c5)cnc34)cc2)ccc1=O` [Compound 6] the IC50 (Capan-2 cells) was 22.2 nM.
`Cn1cc(-c2ccc(CNc3nccc4c3ncn4-c3cncc(F)c3)cn2)ccc1=O` [Compound 5] gave an IC50 (Capan-2 cells) of 11.7 nM.
For `Cn1cc(-c2cnc(CNc3nccn4c(-c5cncc(F)c5)cnc34)cn2)ccc1=O` [Compound 3], the IC50 (Capan-2 cells) was 28 nM.
